Laboratory results: PMC4972573 (Nature structural & molecular biology, 2013)

Target: GluK2 Y521C L783C (Rattus norvegicus, UniProt P42260, Y521C/L783C)
Experiment: outside-out patch single-channel and macroscopic currents
Assay type: cell-based

Chain of GluK2 Y521C L783C (P42260 32-908 Y521C/L783C): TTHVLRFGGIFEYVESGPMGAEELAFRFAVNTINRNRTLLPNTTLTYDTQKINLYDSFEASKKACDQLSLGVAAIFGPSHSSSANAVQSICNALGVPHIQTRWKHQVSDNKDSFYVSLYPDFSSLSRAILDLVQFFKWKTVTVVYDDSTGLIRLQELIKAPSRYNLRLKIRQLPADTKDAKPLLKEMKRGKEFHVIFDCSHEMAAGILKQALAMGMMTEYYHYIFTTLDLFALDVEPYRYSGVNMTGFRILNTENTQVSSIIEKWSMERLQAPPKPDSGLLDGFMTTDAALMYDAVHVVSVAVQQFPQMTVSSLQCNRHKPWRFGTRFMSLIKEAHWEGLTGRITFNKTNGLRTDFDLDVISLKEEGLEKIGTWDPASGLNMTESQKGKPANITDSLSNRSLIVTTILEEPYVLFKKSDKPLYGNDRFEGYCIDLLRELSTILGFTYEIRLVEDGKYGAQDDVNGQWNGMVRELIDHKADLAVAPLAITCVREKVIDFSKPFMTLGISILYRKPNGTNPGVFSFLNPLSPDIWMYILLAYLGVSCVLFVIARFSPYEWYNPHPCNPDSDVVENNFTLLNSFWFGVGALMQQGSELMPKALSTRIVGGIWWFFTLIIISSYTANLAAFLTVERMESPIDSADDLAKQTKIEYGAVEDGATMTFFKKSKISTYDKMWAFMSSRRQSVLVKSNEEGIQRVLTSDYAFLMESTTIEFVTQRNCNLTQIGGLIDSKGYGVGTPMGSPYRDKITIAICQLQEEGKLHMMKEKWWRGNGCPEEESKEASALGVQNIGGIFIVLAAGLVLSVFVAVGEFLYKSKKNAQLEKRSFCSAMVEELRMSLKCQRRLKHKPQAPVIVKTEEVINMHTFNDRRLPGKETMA

## N[C@@H](CCC(=O)O)C(=O)O [L-Glu]
  outside-out patch single-channel and macroscopic currents: Unitary current events elicited by L-Glu acting on Y521C L783C channels
